These are literature values, as cited in patent US7618664B2 (Cooperatieve Verkoop-en Productievereniging Van …, priority 2001, dated 2009).

For this series the following is noted: human body.

Regarding calcium gluconate, the toxicity result was “essentially not show any toxicity”.
